Laboratory results as given in PMC6468747 (Cancers, 2019).
Like-named read-outs stand apart in the source and are kept apart here.

What was measured:
mTORC1 signaling = test: Western blot of mTORC1 signaling in MDA-MB-231 and MDA-MB-468 cells; type: cell-based, human; settings: 72 h
Protocol: MDA-MB-231, MDA-MB-468, MDA-MB-436, MDA-MB-453, HCC-1806, and MFM-223 cells were purchased from American Type Culture Collection (ATCC, Manassas, VA, USA), and authenticated at the Biopolymer/Genomics Core Facility, University of Maryland Baltimore. Cells were tested for mycoplasma contamination at the University of Maryland Marlene and Stewart Greenebaum Cancer Center (UMGCC) Translational Shared Service. Cells were cultured in the recommended media supplemented with 10% FBS and plated 1 day prior to treatment. Cells were treated with the indicated dose and time in the figure at 37 °C in 5% CO2. Protein lysates were harvested in RIPA lysis buffer (Sigma). Western blotting was done as described previously with antibodies described above.

eIF4F complex = test: m7GTP pull-down of eIF4F complex in TNBC cells; type: cell-based, human; settings: 20 µM, 24 h, MDA-MB-231 and MDA-MB-468
Protocol: eIF4F complex in cell extracts was detected using affinity chromatography 7-methyl GTP (m7GTP)-Sepharose as described previously. Briefly, MDA-MB-231 treated with 20 μM VNLG-152 for 24 h were lysed in buffer containing 20 mM Tris-HCl (pH 7.4), 150 mM NaCl, 1 mM EDTA, 1 mM EGTA, 1 mM β-glycerophosphate, 1 mM Na3VO4, 1% Triton X-100, 2.5 mM sodium pyrophosphate, and protease inhibitor cocktail, on ice for 15 min. After centrifugation at 12,000× g for 15 min at 4 °C, the supernatants were collected and incubated with m7GTP-Sepharose (GE Healthcare Bio-Sciences Corp./Amersham, Piscataway, NJ, USA) at 4 °C for 2 h with constant shaking. Beads were washed three times with lysis buffer and three times with 1× Phosphate Buffered Salin, (PBS). The samples were then denatured, and the supernatants were then loaded to SDS-PAGE for immunoblotting.

Mnk1/2 = system: Mnk1/2; design: method as in PMID 24504069; settings: cited from earlier work
MDA-MB-468 cells = test: Head-to-head MTT antiproliferative assay, 6-day exposure; type: cell-based, human
Protocol: (§1) Figure 2 VNLG-152R inhibits mTORC1 signaling and the production of pro-inflammatory cytokines. (A) MDA-MB-231 and MDA-MB-468 cells were treated with the indicated concentrations of VNLG-152R for 72 h. Cell lysates were analyzed by immunoblotting with the indicated antibodies. (B) Head-to-head antiproliferative effects of VNLG-152R and eFT508 on MDA-MB-231 and MDA-MB-468 cells. The dose-response curves were generated from MTT assays after 6-day exposure to different concentrations of the compounds. Each point is a mean of replicates from three independent experiments. (C–E) MDA-MB-231 cell were treated with the indicated concentration of VNLG-152R or eFT508 for 72 h. Cell supernatants were collected, and the indicated cytokines were quantitated by Multiplex Luminex assay.
(§2) Cell growth inhibition assay was performed as described previously. For cell growth experiment, cells were treated with the VNLG-152R, VNLG-152E1 or VNLG-15E2 for 7 days. MTT assay was performed at the end of the experiment. Results represent the mean ± standard deviation of three independent experiments.

MDA-MB-231 cells = test: as above; type: cell-based, human
Protocol: as §1, §2

[1] = system: panel of 6 human TNBC cell lines; test: MTT cell growth assay, summary over the panel; type: cell-based; settings: Homo sapiens, 168 h, 7 days
Protocol: Figure 3 In vitro characterization, pharmacokinetics and toxicity profile of VNLG-152R and its two enantiomers. (A) HPLC chromatograms racemic VNLG-152R (left panel) and the resolved enantiomers VNLG-152E1 and VNLG-152E2 (right panel). The conditions of HPLC procedure are presented in Supplementary Materials. (B) Table summarizing GI50 values (µM) each cell line treated with VNLG-152R and its enantiomers. TNBC cell subtypes were treated with listed compound (0.1 nmol/L–100 µmol/L) for 7 days and the GI50 values for the anti-proliferative effects of the compounds were determined from dose response curves (by a nonlinear regression analysis using Graph Pad Prism). Data represents the results from six independent experiments for each cell line. (C) Plasma concentration versus time profile after intravenous (IV, 2 mg/kg each, top panel) or oral (PO, 20 mg/kg each, bottom panel) of VNLG-152R (red), VNLG-152E1 (purple) and VNLG-152E2 (blue) to female CD1 mice. Values represent the mean plasma concentrations from three mice per time point. (D) Table of the pharmacokinetic parameters of various compounds after IV and PO dosing. AUC = area under the curve, T1/2 = elimination half-life, Cmax = maximum plasma concentration, F (%) = oral bioavailability. (E) Effects of VNLG-152R, VNLG-152E1 and VNLG-152E2 on body weight and clinical observations at chronic dose termination of study. Three different doses, i.e., 10, 25, and 50 mg/kg/day (formulated in 40% β-cyclodextrin in saline) of each compound were administered daily by oral gavage for 14 days. Each group consisted of three mice. Loss in body weight, a clinical sign of toxicity was observed during the 14 days of dosing and the maximum tolerated dose (MTD) was estimated following established procedures. Changes in body weight were scored on a scale of 0–4 as follows as described under methods. […]

[2] = 14-day oral toxicity / MTD study; design: species or system female athymic nude mice; settings: female, athymic nude, mouse, in vivo; oral, 14 days, estimated; read-out: maximum tolerated dose (MTD)
Protocol: Three different doses, i.e., 10, 25, and 50 mg/kg/day (formulated in 40% β-cyclodextrin in saline) of each compound were administered daily by oral gavage for 14 days. Each group consisted of 3 mice. Their body weight kinetics (loss in body weight, a clinical sign of toxicity) was observed during the 14 days of dosing following established procedures. Changes in body weight were scored on a scale of 0–4 as follows: (1) Weight loss: (10 g = 4, 7–9 g = 3, 4–6 g = 2, 1–3 g = 1; severe = 3, moderate = 2, slight = 1, none = 0).

SMILES: CC1=C(/C=C/C(C)=C/C=C/C(C)=C/C(=O)Nc2ccc(F)cc2)C(C)(C)CCC1n1ccnc1 (racemic) [VNLG-152R, 4-(±)-(1H-imidazol-1-yl)-N-(4-fluorophenyl)-(E)-retinamide]
- depletion of p-mTOR (Ser2448), p4E-BP1, peIF4E and p-p70 S6K (mTORC1 signaling): strong dose-dependent depletion
- eIF4G and 4E-BP1 association with eIF4E (eIF4F complex): decreased eIF4G and increased eukaryotic translation initiation factor 4E-binding protein 1 (4E-BP1) association with eIF4E
- inhibition of Mnk1/2 kinase activities (Mnk1/2): no inhibition of Mnk1/2 kinase activities
- GI50 (MDA-MB-468 cells): 500 nM
- fold difference of GI50 (eFT508 vs VNLG-152R) (MDA-MB-468 cells): 105 fold
- GI50 (MDA-MB-468 cells; Homo sapiens, MDA-MB-468, 144 h): 501 nM
- GI50 (MDA-MB-231 cells): 890 nM
- fold difference of GI50 (eFT508 vs VNLG-152R) (MDA-MB-231 cells): 8 fold
- GI50 (MDA-MB-231 cells; Homo sapiens, MDA-MB-231, 144 h): 891 nM
- GI50 ([1]; mean over 6 TNBC cell lines, read-out: average GI50): 970 nM
- GI50 ([1]; range over 6 TNBC cell lines, read-out: range of GI50): 620 to 1860 nM
- MTD at 14 days [2]: > 50 mg/kg
